In patent publication US8546090B2, “SIRT4 activities” (Massachusetts Institute of Technology, priority 2005, dated 2013):

Tests used:
[1] = test system: MIN6 cells; assay: Insulin secretion assay in MIN6 cells (ELISA); format: cell-based, mouse
Experimental: FIG. 4. The role of Sirt4 in insulin secretion. FIG. 4A. The levels of Sirt4 were reduced in MIN6 cells infected with virus that contained Sirt4 RNAi sequences compared to cells infected with pSUPER. FIG. 4B. Insulin secretion was measured from control or RNAi MIN6 cells. Cells were pre-incubated with KRB buffer containing 3 mM glucose, then cells were shifted to buffer containing either 3 mM (open bars) or 16.7 mM glucose (filled bars). Insulin in the buffer was measured by ELISA after a 45 min incubation at 37° C. FIG. 4C. Insulin remaining inside cells was measured at the end of the insulin secretion assays by ELISA.
FIG. 7. Elevated glutamate dehydrogenase activity contributes to increased insulin secretion in Sirt4 RNAi cells. FIG. 7A. MIN6 cells were co-infected with RNAi for Sirt4 and glutamate dehydrogenase, and protein levels were compared to control infections. FIG. 7B. Insulin secretion assays were performed in double-infected or control cells as described previously. FIG. 7C. Insulin secretion assays were performed in control or Sirt4 RNAi treated cells in the presence or absence of BCH, an activator of glutamate dehydrogenase.
MIN6 cells were plated in the wells of a 12-well plate at least 24-hours before secretion assays. […] Insulin concentration was measured by ELISA (Alpco Diagnostics; Windham, N.H.).

[2] = test system: bovine recombinant glutamate dehydrogenase; assay: Glutamate dehydrogenase assay after incubation with Sirt4; format: biochemical
Experimental: FIG. 6. Glutamate dehydrogenase inhibition by Sirt4. FIG. 6A. The enzymatic activity of glutamate dehydrogenase ([…]) was measured before (open bars, T=0) after a 60 min incubation (filled bars, T=60) at 37° C. with hSirt4-FLAG (50 ng) or a buffer control in the presence of 1 mM NAD^+. Experiments were replicated 3-5 times. FIG. 6B. Inhibition of glutamate dehydrogenase by Sirt4 requires 1 mM NAD^+. Glutamate dehydrogenase (50 mg) was incubated with Sirt4 at 37° C. in the presence (pink) or absence (blue) of 1 mM NAD^+. Aliquots (1 ml) were removed at T=0, 5, 15, 30, 60, or 120 min, and glutamate dehydrogenase activity was measured for each time point. FIG. 6C. The activity of glutamate dehydrogenase was measure in mitochondrial lysates (30 mg) from control or Sirt4 RNAi cells. Experiments were performed 3-5 times using cell lines from two separate infections.
Glutamate dehydrogenase (50 μg; Ultrapure from Sigma) was incubated with or without Sirt4 (10 ng) in […] of ADP-ribosylation buffer (50 mM Tris pH 8.0, 10 mM DTT, 150 mM NaCl) in the presence or absence of 1 mM NAD or 1 mM nicotinamide at 37° C. for the indicated times. Then, an aliquot of the reaction was assayed for glutamate dehydrogenase activity. Activity assays were performed at 25° C. using a BioSpec-1601 spectrophotometer (Shimadzu Scientific Instruments, Inc; Braintree, Mass.) at A340 based on the oxidation of NADH as described previously. Data was collected for 5-10 min. at 10 sec. intervals. At the end of each experiment, less than 10% of substrates had been depleted.
Sirt4 or a buffer control was incubated with bovine recombinant glutamate dehydrogenase for one hour in the presence of NAD. Then, the glutamate dehydrogenase activity was assessed by monitoring the disappearance of NADH (A340). […] To verify that this inhibition was dependent on the availability of NAD^+, we incubated Sirt4 with or without NAD^+ with glutamate dehydrogenase for various times. […]

| Compound | insulin secretion with BCH and 16.7 mM glucose compared to 16.7 mM glucose alone ([1]; Sirt4 RNAi treated MIN6 cells) | insulin secretion with BCH and 16.7 mM glucose compared to 16.7 mM glucose alone ([1]; control MIN6 cells) | inhibition of glutamate dehydrogenase activity ([2]; after incubating for 12 hours) | enzymatic activity of glutamate dehydrogenase ([2]; incubated one hour in the presence of NAD, versus buffer control) | inhibition of glutamate dehydrogenase activity ([2]; within 2 hours, in the presence of NAD+) [%] |
| --- | --- | --- | --- | --- | --- |
| NC1(C(=O)O)CC2CCC1C2 (centres unmarked) [BCH] | did not secrete more insulin | enhanced insulin secretion | – | – | – |
| Sirt4: human Sirt4 with C-terminal FLAG, immunoprecipitated from 293T cells; ADP-ribosyltransferase | – | – | more than 90% | significantly reduced | 50 |
